Test results as given in paper PMC10789121, “Amine Basicity of Quinoline ATP Synthase Inhibitors Drives Antibacterial Activity against Pseudomonas aeruginosa” (ACS Medicinal Chemistry Letters, 2023).
≈ marks a conversion by molar mass, not a printed value. Where “and” joins values, the source holds several entries; their conditions need not be identical. Equal entries are not always repeated. Where two headings read alike, the source gives them in different places.

Legend:
[1] = tested on: BAA 2110 (MDRPA clinical isolate); design: method as in PMID 37922420; settings: cited from earlier work
PA 9027 [2] = tested on: PA 9027; design: method as in PMID 37922420; settings: cited from earlier work
[3] = tested on: BAA 2109 (MDRPA clinical isolate); design: method as in PMID 37922420; settings: cited from earlier work
PA ATP synthase [4] = target: T1, PA ATP synthase (Pseudomonas aeruginosa, UniProt Q9HT15); design: method as in PMID 37922420; settings: previously determined; cited from earlier work
T1 construct: a whole operon plasmid that expresses; made in house; host or cells: Escherichia coli DK8 (K-12 strain lacking the unc operon) transformed with pASH20; used as inverted membrane vesicles, not purified

[5] = tested on: BAA 2108 (MDRPA clinical isolate); design: method as in PMID 37922420; settings: cited from earlier work
[6] = tested on: PΔ6 (efflux knockout strain of PA); design: method as in PMID 37922420; settings: cited from earlier work
[7] = tested on: PA electron transport chain; design: method as in PMID 37922420; settings: previously determined; cited from earlier work
[8] = tested on: PA electron transport chain; assay: Electron transport activity (ACMA fluorescence quenching) in PA 9027 inverted membrane vesicles; format: biochemical, Pseudomonas aeruginosa; settings: for PA ETC IC50: PA 9027 inverted membrane vesicles
Excerpt: The assay for PA ATP synthase activity in EC DK8/pASH20 membrane vesicles requires a functional EC ETC, so potent inhibition of the EC ETC by any compound would interfere with the determination of its IC50 for PA ATP synthase. […] Furthermore, potent inhibition of PA ETC could be an alternative mechanism of action for the antibacterial activity of the current series.
(§1) Determination of electron transport activity. As previously described,11 inverted membrane vesicles from PA 9027 or E. coli DK8 pASH20 were added to HMK buffer containing 0.3 µg/mL 9-amino-6-chloro-2-methoxyacridine (ACMA) and 0-64 µg/mL test compound in DMSO. After measurement of baseline ACMA fluorescence for 60 s, redox-driven H+ pumping was initiated by addition of NADH to 0.8 mM, and fluorescence quenching was monitored for 120 s before addition of nigericin to 0.5 µg/mL. Relative activity is reported as the minimum fluorescence value normalized to the maximum fluorescence value following addition of nigericin.

[9] = tested on: EC electron transport chain; assay: Electron transport activity (ACMA fluorescence quenching) in E. coli DK8 pASH20 inverted membrane vesicles; format: biochemical, Escherichia coli
Experimental: as §1

PA ATP synthase [10] = target: T1, PA ATP synthase; assay: Inhibition of NADH-driven PA ATP synthesis activity in DK8/pASH20 inverted membrane vesicles (end-point luciferin/luciferase assay); format: biochemical; settings: PA ATP synthase IC50 (absolute), NADH-driven ATP synthesis, EC DK8/pASH20 inverted membrane vesicles
[11] = tested on: PΔ6 (efflux knockout strain of PA); assay: Antimicrobial susceptibility, broth microdilution MIC; format: cell-based; settings: Pseudomonas aeruginosa, read-out: MIC PΔ6
Experimental: (§2) Pseudomonas aeruginosa (ATCC 9027), Drug-Resistant Pseudomonas aeruginosa from ATCC Panel MP-23 (BAA-2108, BAA-2109, BAA-2110), and Pseudomonas aeruginosa efflux knockout GKCW120 (PD6)14 provided by Zgurskaya and co-workers at the University of Oklahoma.
(§3) Antimicrobial Susceptibility Assay Procedure. Susceptibility testing was performed in biological triplicate, using the broth microdilution method as outlined by the Clinical and Laboratory Standards Institute. Briefly, minimum inhibitory concentrations (MIC) determinations were carried out in 96-well microtiter plates with 2-fold serial dilutions of the compounds from 0 […]
(§4) Briefly, to each well 1 µL of compound in DMSO, 89 µL of TSB, and 10 µL of bacterial inoculum, grown from frozen stock in 10 mL of TSB […]
(§5) for 4-6 hours, were added. […]
(§6) on a Biotek Synergy HTX Multi-mode plate reader. Data was processed by background subtracting the media absorbance and then normalizing the data to full bacterial growth with only vehicle.
(§7) MIC is defined as the lowest concentration of antibiotic or antibiotic/adjuvant combination that achieves ≥ 85% growth inhibition, which corresponds to no visible growth. […]

PA 9027 [12] = assay: as above; format: cell-based; settings: Pseudomonas aeruginosa, read-out: MIC PA 9027
Experimental: as §2, §3, §4, §5, §6, §7

[13] = design: method as in earlier work; settings: value of the C2 functional group; cited from earlier work
[14] = tested on: BAA 2110 (MDRPA clinical isolate); assay: Antimicrobial susceptibility, broth microdilution MIC; format: cell-based, Pseudomonas aeruginosa; settings: for MIC: Pseudomonas aeruginosa
Experimental: as §2, §3, §4, §5, §6, §7

[15] = tested on: BAA 2108 (MDRPA clinical isolate); assay: as above; format: cell-based, Pseudomonas aeruginosa; settings: for MIC: Pseudomonas aeruginosa
Experimental: as §2, §3, §4, §5, §6, §7

[16] = tested on: BAA 2109 (MDRPA clinical isolate); assay: as above; format: cell-based, Pseudomonas aeruginosa; settings: for MIC: Pseudomonas aeruginosa
Experimental: as §2, §3, §4, §5, §6, §7

[17] = BAA2110, >85% reduction in growth at OD 590 nm, n = 3, read-out: MIC BAA 2110
[18] = BAA2108, >85% reduction in growth at OD 590 nm, n = 3, read-out: MIC BAA 2108
[19] = BAA2109, >85% reduction in growth at OD 590 nm, n = 3, read-out: MIC BAA 2109
[20] = BAA2110, read-out: MIC BAA 2110
[21] = BAA2108, read-out: MIC BAA 2108
[22] = BAA2109, read-out: MIC BAA 2109
[23] = >85% reduction in growth at OD 590 nm, n = 3

Compound | % PA ETC Inhibition at 32 µg/mL [8] | % EC ETC Inhibition at 4 µg/mL [9] | IC50 (PA ATP synthase [10]) | PA ETC IC50 [8] | MIC [11] | MIC (PA 9027 [12]) | approximate pKa (NH+) of C2 side chain conjugate acid [13] | MIC [14, 17] | MIC [15, 18] | MIC [16, 19] | further results
CSc1nc2ccccc2cc1CNCc1ccc(CN(C)C)cc1 [Compound 1] |  |  |  |  |  |  |  |  |  |  | MIC BAA 2110 [1]: >256 µg/mL; MIC PA 9027 (PA 9027 [2]): >256 µg/mL; MIC BAA 2109 [3]: 256 µg/mL (≈ 728 µM); PA ATP synthase IC50 (PA ATP synthase [4]): 30 µg/mL; MIC BAA 2108 [5]: 128 to 256 µg/mL; MIC PΔ6 [6]: 64 to 128 µg/mL; PA ETC IC50 [7]: 29 µg/mL
CSc1nc2ccccc2cc1CNCCCN(C)C [Compound 5] | 54% | 9% | 149 µM |  |  |  |  |  |  |  | 
CN(C)CCCNCc1cc2ccccc2nc1SCc1ccccc1 [Compound 6] |  | 3% | 16.4 µM | 44 µg/mL | 16 µg/mL | > 128 µg/mL | above 6 | 32 µg/mL | 64 µg/mL | 64 µg/mL | 
CSc1nc2ccccc2cc1CNCCCCN(C)C [Compound 7] | 72% | 6% | 224 µM |  |  |  |  |  |  |  | 
CN(C)CCCCNCc1cc2ccccc2nc1SCc1ccccc1 [Compound 8] |  | 0% | 2.63 µM | 26 [26] μg/mL | 16 µg/mL | > 128 µg/mL | > 6 | 32 µg/mL | 64 µg/mL | 64 µg/mL | 
CSc1nc2ccccc2cc1CNCCCCCN(C)C [Compound 9] | 74% | 22% | 59.8 µM |  |  |  |  |  |  |  | 
CN(C)CCCCCNCc1cc2ccccc2nc1SCc1ccccc1 [Compound 10] |  | 14% | ~5.08 µM and 5.08 µM | 57 µg/mL | 64 µg/mL | > 128 µg/mL | above 6 | 64 µg/mL | 64 µg/mL | 128 µg/mL | 
CSc1nc2ccccc2cc1CNCc1ccc(N(C)C)cc1 [Compound 11] |  | 4% | 14.8 µM |  |  |  | ∼5 |  |  |  | % PA ETC Inhibition at 4 µg/mL ([8]; 4 µg/mL): 20%
CCN1CCC(CCNCc2cc3ccccc3nc2SC)CC1 [Compound 13] | 74% | 20% | 114 µM |  |  |  |  |  |  |  | 
CCN1CCC(CCNCc2cc3ccccc3nc2SCc2ccccc2)CC1 [Compound 14] |  | 16% | 2.38 µM | 26 [26] μg/mL | 16 µg/mL | > 128 µg/mL | above 6 |  |  |  | MIC [14, 20]: 16 µg/mL; MIC [15, 21]: 32 µg/mL; MIC [16, 22]: 64 µg/mL
CSc1nc2ccccc2cc1CNCCC1CCN(C2CCCC2)CC1 [Compound 15] |  | 6% | 54.7 µM | 8.3 µg/mL |  |  |  |  |  |  | 
c1ccc(CSc2nc3ccccc3cc2CNCCC2CCN(C3CCCC3)CC2)cc1 [Compound 16] |  | 9% | 2.18 µM | 14 [14] μg/mL | 8 µg/mL | > 128 µg/mL | > 6 |  |  |  | MIC BAA 2110 [14, 23]: inactive; MIC [14, 20]: > 128 µg/mL; MIC [15, 21]: 32 µg/mL; MIC [16, 22]: 64 µg/mL
CSc1nc2ccccc2cc1CNCCc1cccn1C [Compound 17] | 65% | 0% | 16.1 µM |  |  |  | ∼0.5 |  |  |  | 
Cn1cccc1CCNCc1cc2ccccc2nc1SCc1ccccc1 [Compound 18] | 62% | 5% | 12.9 µM and 10.3 µM |  |  |  |  |  |  |  | 
CSc1nc2ccccc2cc1CNCCc1nc(C)cc(C)n1 [Compound 19] |  | 1.3% | 198 µM |  |  |  | ∼1 |  |  |  | % PA ETC Inhibition ([8]; concentration not given): 20%
Cc1cc(C)nc(CCNCc2cc3ccccc3nc2SCc2ccccc2)n1 [Compound 20] | 67% | 17% | 7.24 µM |  |  |  |  |  |  |  | 
CSc1nc2ccccc2cc1CNCCc1cnc[nH]1 [Compound 21] |  | 5% | 53.6 µM | 39 µg/mL |  |  | ∼7 |  |  |  | 
c1ccc(CSc2nc3ccccc3cc2CNCCc2cnc[nH]2)cc1 [Compound 22] |  |  | ~5.34 µM and 5.34 µM | 15 µg/mL | 16 µg/mL | > 128 µg/mL |  | > 128 µg/mL | 32 µg/mL | 64 µg/mL | EC ETC IC50 ([9]; E. coli DK8 pASH20 inverted membrane vesicles): 14 µg/mL; MIC BAA 2108 [15, 23]: displayed antibacterial activity; MIC BAA 2109 [16, 23]: displayed antibacterial activity
O=C(N[C@H](CO)[C@H](O)c1ccc([N+](=O)[O-])cc1)C(Cl)Cl [chloramphenicol, reference compound] |  |  |  |  | 4 µg/mL |  |  | 128 µg/mL | 32 µg/mL | 128 µg/mL | MIC (PA 9027 [12]; [23]): 128 µg/mL
CNC(C)C1CCC(N)C(OC2C(N)CC(N)C(OC3OCC(C)(O)C(NC)C3O)C2O)O1 (centres unmarked) [gentamicin, reference compound] |  |  |  |  | > 4 µg/mL | 2 to 4 µg/mL |  | 4 to 8 µg/mL | 16 µg/mL | 2 µg/mL | 
